The values below come from ChEMBL document CHEMBL1201862, “PubChem BioAssay data set” (2004).

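Grown in 96-well plates, cells were treated for 48 hours with each compound at five concentrations. Insufficient inhibition: endpoint recorded as highest concentration tested. GI50 = concentration required for 50% inhibition of growth.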 Activity calls are given as the source filed them. Rule as the data show it: active = GI50 up to about 1.1 µM and inactive = higher. Bounds are passed on as bounds.

Among the test systems are HOP-92; HT-29; SK-MEL-2; SNB-19; OVCAR-4; SN12C; 786-0; NCI-H226; KM12; SF-539; RXF 393; COLO 205; SNB-75; Hs-578T; RPMI-8226; NCI-H522; K562; OVCAR-8; SR.
Holding throughout (assay): NCI-60 cell line screen, 48 h

Turning to `CC[N+](CC)(CCNCC(N)=O)CC(N)=O`, the GI50 in the experiment with HOP-92, in the experiment on HT-29, in the experiment with SK-MEL-2, in the experiment on SNB-19, in the experiment with OVCAR-4 and in the experiment on SN12C was > 10 µM (inactive) each time. Moreover, the GI50 with 786-0, in the experiment on NCI-H226, in the experiment with KM12, in the experiment with SF-539, with RXF 393 and in the experiment with COLO 205 was > 10 µM (inactive) in each case. In addition, the GI50 with SNB-75, in the experiment with Hs-578T, with RPMI-8226, in the experiment on NCI-H522, with K562 and in the experiment on OVCAR-8 was > 10 µM (inactive) in each case.
Consider `O=C(/C=C(\O)C(=O)O)/C=C(\O)c1ccc(Cl)cc1`, for which the GI50 in the experiment with HOP-92, with HT-29, with SK-MEL-2, in the experiment with SNB-19, with OVCAR-4 and with SN12C was > 100 µM (inactive) in each case. The GI50 with 786-0, in the experiment with NCI-H226, with KM12, in the experiment with SF-539, with RXF 393 and in the experiment with COLO 205 was > 100 µM (inactive) throughout. In addition, the GI50 in the experiment on SNB-75, in the experiment with RPMI-8226, in the experiment on NCI-H522, with K562, with SR and in the experiment on OVCAR-8 was > 100 µM (inactive) each time.
With `CN(C)c1ccc(/C=C2\CCc3ccccc3C2=O)cc1Br`, the GI50 in the experiment on HOP-92 was 62.7 µM (inactive); in the experiment on HT-29 it was 33.1 µM (inactive); in the experiment with SK-MEL-2 it was 48.5 µM (inactive); in the experiment on SNB-19, > 100 µM (inactive); in the experiment with OVCAR-4, 83.9 µM (inactive); in the experiment with SN12C it was > 100 µM (inactive). The GI50 was > 100 µM (inactive) in the experiment on 786-0; > 100 µM (inactive) with NCI-H226; 38.5 µM (inactive) in the experiment with KM12; > 100 µM (inactive) in the experiment with SF-539; 75.5 µM (inactive) with RXF 393; 68.9 µM (inactive) with COLO 205. Moreover, the GI50 was > 100 µM (inactive) in the experiment with SNB-75; 24.8 µM (inactive) in the experiment with RPMI-8226; 23.2 µM (inactive) with NCI-H522; 33.7 µM (inactive) with K562; 29.2 µM (inactive) with SR; 41.1 µM (inactive) with OVCAR-8.
On to `CCN(CC)C(=S)Nc1ccc(-c2cc3ccc(O)cc3oc2=O)cc1`, for which the GI50 with HT-29 is 16.8 µM (inactive); in the experiment with SK-MEL-2, 20.3 µM (inactive); in the experiment with SNB-19 it was 29.9 µM (inactive); in the experiment with SN12C it was 27 µM (inactive); with 786-0, 39.4 µM (inactive); with NCI-H226, 25.6 µM (inactive). For the same molecule, the GI50 is 28.8 µM (inactive) in the experiment with KM12; 29.2 µM (inactive) with SF-539; 30.2 µM (inactive) in the experiment on RXF 393; 29.4 µM (inactive) with COLO 205; 16.4 µM (inactive) in the experiment on SNB-75; 25.4 µM (inactive) in the experiment on Hs-578T. Moreover, the GI50 is 21.6 µM (inactive) in the experiment on RPMI-8226; 17 µM (inactive) in the experiment with NCI-H522; 18.4 µM (inactive) with K562; 14.5 µM (inactive) in the experiment with SR; 26.9 µM (inactive) in the experiment on OVCAR-8.
As for `CC(CN(C)C)C(=O)c1ccccc1` (stereo unspecified), the GI50 is 2.33 µM (inactive) in the experiment on HOP-92; 20 µM (inactive) with HT-29; 22.7 µM (inactive) in the experiment on SK-MEL-2; > 77.3 µM (inactive) in the experiment with SNB-19; > 41.1 µM (inactive) in the experiment on OVCAR-4; 17.6 µM (inactive) with SN12C. The GI50 was 22.6 µM (inactive) in the experiment on 786-0; > 100 µM (inactive) in the experiment with NCI-H226; 18.2 µM (inactive) in the experiment with KM12; 51.8 µM (inactive) with SF-539; 22.8 µM (inactive) in the experiment on RXF 393; 31.6 µM (inactive) in the experiment on COLO 205. Also, the GI50 is > 83.9 µM (inactive) in the experiment with SNB-75; 0.94 µM (active) in the experiment on RPMI-8226; 2.04 µM (inactive) with NCI-H522; 5.02 µM (inactive) in the experiment with K562; 19.6 µM (inactive) with SR; 31.6 µM (inactive) with OVCAR-8.
For `O=S(=O)(O)c1ccc(/N=N/c2ccc(/N=N/c3c(O)ccc4ccccc34)c(S(=O)(=O)O)c2)cc1`, the GI50 in the experiment on HOP-92, with HT-29, in the experiment with SK-MEL-2, in the experiment with SNB-19, with 786-0 and with NCI-H226 was > 100 µM (inactive) each time. Also, the GI50 in the experiment on KM12 is > 100 µM (inactive); in the experiment on SF-539, > 100 µM (inactive); in the experiment with RXF 393 it was > 100 µM (inactive); in the experiment with COLO 205, > 100 µM (inactive); in the experiment with SNB-75, 62.1 µM (inactive); in the experiment with Hs-578T, > 100 µM (inactive). Further, the GI50 in the experiment on RPMI-8226, with NCI-H522, in the experiment with K562, in the experiment on SR and in the experiment on OVCAR-8 was > 100 µM (inactive) throughout.
With `O=C1/C(=C/c2ccccc2)CCCc2ccccc21`, the GI50 in the experiment on HOP-92 is 15.3 µM (inactive); in the experiment with HT-29, 17.7 µM (inactive); with SK-MEL-2, 16.2 µM (inactive); in the experiment with SNB-19 it was 14 µM (inactive); in the experiment with OVCAR-4, 17.3 µM (inactive); in the experiment with SN12C it was 19.6 µM (inactive). For the same molecule, the GI50 is 16.4 µM (inactive) in the experiment on 786-0; 18.4 µM (inactive) with NCI-H226; 18.1 µM (inactive) in the experiment on KM12; 17.9 µM (inactive) in the experiment with SF-539; 18.6 µM (inactive) in the experiment on COLO 205; 35.3 µM (inactive) in the experiment on SNB-75. Moreover, the GI50 in the experiment with Hs-578T is 21.9 µM (inactive); in the experiment with RPMI-8226, 16.6 µM (inactive); in the experiment with NCI-H522, 21.1 µM (inactive); in the experiment with K562, 19.2 µM (inactive); in the experiment with SR it was 14.4 µM (inactive); in the experiment on OVCAR-8, 20.4 µM (inactive).
On to `CC[C@H](CC[C@@H](C)[C@H]1CC[C@H]2[C@@H]3CC=C4C[C@@H](O)CC[C@]4(C)[C@H]3CC[C@]12C)C(C)C` [BETA-SITOSTEROL], for which the GI50 with HOP-92, in the experiment on HT-29, with SK-MEL-2, in the experiment on SNB-19, in the experiment with OVCAR-4 and in the experiment with SN12C was > 100 µM (inactive) throughout. For the same molecule, the GI50 in the experiment with 786-0, in the experiment with NCI-H226, with KM12, in the experiment on SF-539, in the experiment with COLO 205 and with SNB-75 was > 100 µM (inactive) each time. Moreover, the GI50 in the experiment with Hs-578T, in the experiment with RPMI-8226, in the experiment on NCI-H522, in the experiment with K562 and in the experiment on OVCAR-8 was > 100 µM (inactive) each time.
